# According to US11046651B2, “Piperazine substituted azapine derivatives and uses thereof” (Alairion, Inc., priority 2019, dated 2021):
# Like-named read-outs stand apart in the source and are kept apart here.
# How the values were obtained:
# 5-HT2C = 5-HT2C (Homo sapiens (Human), UniProt P28335); test: 5-HT2C binding assay ([3H]-Mesulergine, HEK293 membranes)
# male Wistar rats = test: SCORE EEG/EMG sleep-wake monitoring: sleep continuity, number of arousals, depth of sleep; type: in vivo, rat; conditions: 30 mg/kg PO
# Protocol: Example 30. Experimental Details and Methods for Determining Sleep Continuity, Number of Arousals, and Depth of Sleep
# Treatment detail plots (see, e.g., FIGS. 1-10) depict pre- and post-treatment time series plot ±30 hours before and after treatment at CT-18 (6-hours after lights-off) or pre- and post-treatment time series plots 29 hr before and 31 hr after treatments at CT-5 (5-hours after lights-on). Treatment occurred at the beginning of the hour marked by a triangle on the abscissa of the plot. Variables were computed in hourly bins.
# All data were plotted as group mean±SEM (see, e.g., FIGS. 1-10). The gray shaded area encompasses the vehicle treatment mean±SEM. Along the x-axis, time of treatment is marked by a triangle unless noted otherwise. Along the x-axis, light/dark bars indicate lights on/off.
# Adult, male Wistar rats (approximately 270 g at time of surgery, Charles River Laboratories) were administered dexmedetomidine 25 μg/kg and anesthetized (2% isoflourane in 95/5 oxygen, to effect) and surgically prepared with a cranial implant that permitted chronic electro-encephalogram (EEG) and electromyogram (EMG) recording. Body temperature and locomotor activity were monitored via a miniature transmitter (Minimitter Series PDT4000 E-Mitter, Bend, Oreg.) surgically placed in the abdomen during the same anesthetic event when the cranial portion was implanted. The cranial implant consisted of miniature stainless steel screws (2 frontal [+3.9 AP from bregma, 2.0 ML], 2 occipital [−6.4 AP, 5.5 ML], and 1 ground placed sagittaly and posterior to lambda) for EEG recording. Two Teflon-coated multi-strand stainless steel wires were positioned under the nuchal trapezoid muscles for EMG recording. All leads were soldered to a miniature connector (Omnetics, Minneapolis, Minn.) and gas sterilized with ethylene oxide prior to surgery. The implant assembly was affixed to the skull by the combination of the EEG recording screws, cyanoacrylate applied between the hermetically sealed implant connector and skull, and a UV-curing dental acrylic. An analgesic (meloxicam 1 mg/kg IP) was administered 1 day prior to surgery and daily for 2 days post-surgery. Neosporin with lidocaine was applied topically to the peri-implant margin. At least three weeks were allowed for surgical recovery prior to any data collection.
# Rats were housed individually within specially modified Innovive® cages equipped with a custom-built ultra-low-torque slip-ring commutator and a customized Innovive® polycarbonate cage-top. These cages were located on shelves of a modified stainless steel animal rack that was pre-wired for physiological and behavioral data collection. Food and water were available ad libitum and the ambient temperature was 22±1° C. A 24-hr light-dark cycle (LD 12:12) was maintained throughout the study using LED lighting strips. Light intensity averaged 35 lux at mid-level inside the cage. Relative humidity averaged 50% approximately. Animals were undisturbed for two days before and after each treatment.
# Sleep and wakefulness were determined using SCORE™—a Linux and Windows-10 real-time computer-based sleep-wake and physiological monitoring system. Validation of the SCORE™ sleep stage identification algorithm in rodents and the system's utility in pre-clinical drug discovery and evaluation have been previously described (Edgar et al. Psychopharmacology 1991, 105, 374; Gilmour et al., Neuropharmacology 2012, 64, 224; McCarthy et al., 2016, Neuropharmacology 108, 415; Olive et al., J. Pharmacology &Experimental Therapeutics 1998 285, 1073; Phillips et al, Neuropharmacology 2012, 62, 1359; Seidel et al. J Pharmacology &Experimental Therapeutics 1995, 275, 263; Van Gelder et al. Sleep 1991, 14, 48). […]
# [1] = Human clearance and half-life projections (allometric scaling from monkey clearance)
# Protocol: The biological activity of the compounds of the present disclosure may be determined utilizing projected human clearance (CL) and half-life in humans. An allometric scaling method, using a single species scaling from monkey clearance was used to project clearance. Human volume of distribution (Vd) was projected from animal Vd, adjusted for differences in plasma protein binding and assuming similar unbound Vd across species. Human half-life (T1/2) was calculated based on a one-compartmental model, using a relationship of T1/2=0.693×(predicted Vd/predicted CL).
# An allometric scaling method, using a single species scaling from monkey clearance was used to project clearance. Human volume of distribution (Vd) was projected from animal Vd, adjusted for differences in plasma protein binding and assuming similar unbound Vd across species. Human half-life (T1/2) was calculated based on a one-compartmental model, using a relationship of T1/2=0.693×(predicted Vd/predicted CL).
# Sequence of 5-HT2C (P28335 33-458): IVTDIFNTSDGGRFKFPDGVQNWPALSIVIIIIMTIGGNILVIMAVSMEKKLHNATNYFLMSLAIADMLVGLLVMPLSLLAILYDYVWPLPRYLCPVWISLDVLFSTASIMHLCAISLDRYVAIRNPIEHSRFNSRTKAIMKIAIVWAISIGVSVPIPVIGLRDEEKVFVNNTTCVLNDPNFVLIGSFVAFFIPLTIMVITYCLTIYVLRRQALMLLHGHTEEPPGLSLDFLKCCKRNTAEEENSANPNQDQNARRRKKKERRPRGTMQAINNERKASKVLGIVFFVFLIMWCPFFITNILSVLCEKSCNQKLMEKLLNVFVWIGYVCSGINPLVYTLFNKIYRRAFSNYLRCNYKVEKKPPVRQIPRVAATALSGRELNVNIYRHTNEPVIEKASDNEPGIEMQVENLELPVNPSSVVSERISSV
compound,measurement,setting,value
"Cc1ccc2c(c1)Oc1cc(C)ccc1C(N1CCN(CC(C)(C)C(=O)O)CC1)=N2 [Compound No. 7, 3-(4-(3,7-dimethyldibenzo[b,f][1,4]oxazepin-11-yl)piperazin-1-yl)-2,2-dimethylpropanoic acid]",Ki,5-HT2C,> 0.5 µM
same,Ki,5-HT2C; numeric values,2.22 µM
same,reductions in the number of transitions from sleep to wake per hour relative to controls,"male Wistar rats; CT-5, male Wistar rats",40-50%
same,increase in sleep bout-length per hour relative to vehicle control,"male Wistar rats; CT-18, male Wistar rats",3-4 fold
same,normalized EEG delta power (slow wave activity) during nonREM sleep,"male Wistar rats; CT-18, male Wistar rats",increases in EEG slow wave activity in nonREM sleep
same,"T1/2 (h), projected human half-life","[1]; one-compartmental model, T1/2=0.693×(predicted Vd/predicted CL)",4 to 8 h
same,"CL (mL/min/kg), projected human clearance",[1]; single species scaling from monkey clearance,1.3 mL/min/kg
